In patent publication US7666875B2, “Hydantoin compounds” (Eisai R&D Management Co., Ltd., priority 2005, dated 2010):
Like-named read-outs stand apart in the source and are kept apart here.

Biological target: T1, human T-bet (Homo sapiens, UniProt Q9UL17)
T1 construct: expressed in transfected cells; host or cells: engineered HEK cells (HEKT-bet)
T1 sequence (Q9UL17 1-535): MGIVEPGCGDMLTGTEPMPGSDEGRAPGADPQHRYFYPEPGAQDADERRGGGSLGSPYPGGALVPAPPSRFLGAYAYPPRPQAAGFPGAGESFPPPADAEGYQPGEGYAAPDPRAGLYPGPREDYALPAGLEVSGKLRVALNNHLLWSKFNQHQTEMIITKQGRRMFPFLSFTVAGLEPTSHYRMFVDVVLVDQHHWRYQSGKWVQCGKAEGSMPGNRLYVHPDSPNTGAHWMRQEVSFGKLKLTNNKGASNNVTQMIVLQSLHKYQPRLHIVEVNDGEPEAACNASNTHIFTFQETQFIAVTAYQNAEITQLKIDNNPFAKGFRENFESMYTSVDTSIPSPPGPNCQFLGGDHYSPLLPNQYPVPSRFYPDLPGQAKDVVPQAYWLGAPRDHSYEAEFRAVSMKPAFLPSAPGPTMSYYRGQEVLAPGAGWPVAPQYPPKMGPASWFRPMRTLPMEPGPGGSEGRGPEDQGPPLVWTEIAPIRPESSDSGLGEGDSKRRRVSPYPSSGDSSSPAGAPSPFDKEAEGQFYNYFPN
Experiment: HEKT-bet-luc assay (T-bet dependent luciferase reporter in engineered HEK cells)
Type: cell-based
Description: HEKT-bet-luc assay: This assay measures a T-bet dependent reporter (luciferase) activity in engineered HEK cells that express a human T-bet and a T-box responsive element driving luciferase reporter. HEKT-bet cells were plated at 2×10^4/well in 96-well plate and compound was added into cell culture for 24 hours. Luciferase activity was measured by adding 50 μl of Steady-Glo reagent (Promega) and samples were read in Victor V reader (PerkinElmer). The IC50 values were calculated utilizing a maximum value corresponding to the amount of luciferase in the absence of a test compound and a minimum value corresponding to a test compound value obtained at maximum inhibition.
Determination of Normalized HEKT-bet IC50 values: Compounds were assayed in microtiter plates. Each plate included a reference compound which was ER-213038. The un-normalized IC50 value for a particular compound was divided by the IC50 value determined for the reference compound in the same microtiter plate to provide a relative potency value. The relative potency value was then multiplied by the established potency of the reference compound to provide the normalized HEKT-bet IC50 value. […] The IC50 values provided herein were obtained using this normalization method.

[1] = Table 4, HEKT-bet cells, compound 24 hours, IC50 normalized to reference ER-213038, read-out: IC50

| Compound | IC50 [1] [nM] | IC50 (reference compound used for normalization on each microtiter plate, read-out: established potency of the reference compound (HEKT-bet IC50)) [nM] |
| --- | --- | --- |
| COc1cccc(CN2C(=O)N(Cc3ccncc3)C3(CCN(Cc4cccc5ccccc45)CC3)C2=O)c1 [Example 138] | 125 | – |
| COCCN1C(=O)N(Cc2cccc(OC)c2)C(=O)C12CCN(Cc1cc(C)c(C)cc1C)CC2 [Example 139] | 125 | – |
| COc1cccc(CN2C(=O)N(Cc3ccc(-n4cccn4)cc3)C3(CCN(Cc4cccc5ccccc45)CC3)C2=O)c1 [Example 140] | 127 | – |
| COCCN1C(=O)N(Cc2cccc(OC)c2)C(=O)C12CCN(Cc1c(C)cccc1C)CC2 [Example 141] | 130 | – |
| CCOc1ccc2ccccc2c1CN1CCC2(CC1)C(=O)N(Cc1cccc(OC)c1)C(=O)N2CCOC [Example 142] | 130 | – |
| COc1cc(CN2CCC3(CC2)C(=O)N(C/C=C/c2ccccc2)C(=O)N3Cc2ccccn2)cc(OC)c1 [Example 143] | 134 | – |
| COc1cc(CN2CCC3(CC2)C(=O)N(Cc2cc(OC)cc(OC)c2)C(=O)N3C)cc(OC)c1 [Example 144] | 134 | – |
| COc1cc(CN2CCC3(CC2)C(=O)N(Cc2cc(OC)cc(OC)c2)C(=O)N3Cc2ccncc2)cc(OC)c1 [Example 145] | 139 | – |
| COCCN1C(=O)N(Cc2cccc(OC)c2)C(=O)C12CCN(Cc1cc(OC)cc(OC)c1F)CC2 [Example 146] | 142 | – |
| COCCN1C(=O)N(Cc2cccc(OC)c2)C(=O)C12CCN(Cc1ccc3c4c(cccc14)CC3)CC2 [Example 147] | 142 | – |
| COc1cccc(CN2C(=O)N(C)C3(CCN(Cc4cccc5ccccc45)CC3)C2=O)c1 [Example 148] | 143 | – |
| COCCN1C(=O)N(Cc2cccc(OC)c2)C(=O)C12CCN(Cc1cc(C)ccc1C)CC2 [Example 150] | 147 | – |
| COCCN1C(=O)N(Cc2ccc3ccccc3c2)C(=O)C12CCN(Cc1cc(OC)cc(OC)c1)CC2 [Example 151] | 148 | – |
| COCCN1C(=O)N(C/C=C/c2cccc3ccccc23)C(=O)C12CCN(Cc1ccccc1)CC2 [Example 152] | 149 | – |
| COCCN1C(=O)N(CCCOc2ccccc2)C(=O)C12CCN(Cc1cccc3ccccc13)CC2 [Example 153] | 151 | – |
| COCN1C(=O)N(Cc2cc(OC)cc(OC)c2)C(=O)C12CCN(Cc1cc(OC)cc(OC)c1)CC2 [Example 154] | 153 | – |
| COc1cccc(CN2C(=O)N(Cc3ccc(-n4cccn4)cc3)C3(CCN(Cc4cc(OC)cc(OC)c4)CC3)C2=O)c1 [Example 155] | 159 | – |
| COCCN1C(=O)N(Cc2cccc(OC)c2)C(=O)C12CCN(Cc1cccc(-c3ccc(O)cc3)c1)CC2 [Example 156] | 159 | – |
| COCCN1C(=O)N(Cc2cccc(OC)c2)C(=O)C12CCN(Cc1cc3ccccc3c3ccccc13)CC2 [Example 157] | 161 | – |

| Compound | IC50 [1] [nM] | IC50 (reference compound used for normalization on each microtiter plate, read-out: established potency of the reference compound (HEKT-bet IC50)) [nM] |
| --- | --- | --- |
| CCc1ccccc1CN1CCC2(CC1)C(=O)N(Cc1cccc(OC)c1)C(=O)N2CCOC [Example 158] | 164 | – |
| COCCN1C(=O)N(Cc2cccc(OC)c2)C(=O)C12CCN(Cc1cccc(Br)c1)CC2 [Example 159] | 166 | – |
| COCCN1C(=O)N(Cc2cccc(OC)c2)C(=O)C12CCN(Cc1c3ccccc3cc3ccccc13)CC2 [Example 160] | 168 | – |
| COCCN1C(=O)N(Cc2cccc(OC)c2)C(=O)C12CCN(Cc1ccc3ccccc3c1)CC2 [Example 161] | 169 | – |
| COCCN1C(=O)N(Cc2ccc3ccccc3c2)C(=O)C12CCN(Cc1cccc(C)c1)CC2 [Example 162] | 172 | – |
| COCCN1C(=O)N(Cc2cccc(F)c2)C(=O)C12CCN(Cc1cc(OC)cc(OC)c1)CC2 [Example 163] | 182 | – |
| COCCN1C(=O)N(Cc2cccc(OC)c2)C(=O)C12CCN(Cc1c(C)c(C)c(C)c(C)c1C)CC2 [Example 164] | 182 | – |
| COCCN1C(=O)N(C/C=C/c2ccccc2F)C(=O)C12CCN(Cc1ccccc1)CC2 [Example 165] | 183 | – |
| COCCN1C(=O)N(Cc2ccc3ccccc3c2)C(=O)C12CCN(Cc1cccc(OC)c1)CC2 [Example 166] | 184 | – |
| CCN1C(=O)N(Cc2cccc(OC)c2)C(=O)C12CCN(Cc1cc(OC)cc(OC)c1)CC2 [Example 167] | 187 | – |
| CCN1C(=O)N(Cc2cccc(OC)c2)C(=O)C12CCN(Cc1cccc3ccccc13)CC2 [Example 168] | 190 | – |
| COCCN1C(=O)N(Cc2cccc(OC)c2)C(=O)C12CCN(Cc1cccc3c1Cc1ccccc1-3)CC2 [Example 169] | 190 | – |
| COCCN1C(=O)N(Cc2cccc(OC)c2)C(=O)C12CCN(Cc1cccc(OC)c1)CC2 [Example 170] | – | 190 |
| COCCN1C(=O)N(C/C=C/c2ccccc2)C(=O)C12CCN(Cc1ccccc1)CC2 [Example 171] | 191 | – |
| COCCN1C(=O)N(Cc2cccc(OC)c2)C(=O)C12CCN(Cc1csc3ccccc13)CC2 [Example 172] | 193 | – |
| COc1cccc(CN2C(=O)N(Cc3cccnc3)C3(CCN(Cc4cccc5ccccc45)CC3)C2=O)c1 [Example 173] | 196 | – |
| COc1cccc(CN2CCC3(CC2)NC(=O)N(C/C=C/c2ccccc2)C3=O)c1 [Example 174] | 198 | – |
| COCCN1C(=O)N(Cc2cccc(OC)c2)C(=O)C12CCN(Cc1c3ccccc3c(C)c3ccccc13)CC2 [Example 175] | 200 | – |
| COCCN1C(=O)N(Cc2ccccc2)C(=O)C12CCN(Cc1cc(OC)cc(OC)c1)CC2 [Example 196] | 268 | – |

Now from value to molecule:

| IC50 [1] [nM] | IC50 (reference compound used for normalization on each microtiter plate, read-out: established potency of the reference compound (HEKT-bet IC50)) [nM] | Compound |
| --- | --- | --- |
| 203 | – | COCCN1C(=O)N(Cc2cccc(OC)c2)C(=O)C12CCN(Cc1cccc(N3CCCC3)c1)CC2 [Example 176] |
| 205 | – | CCN1C(=O)N(Cc2ccc3ccccc3c2)C(=O)C12CCN(Cc1cc(OC)cc(OC)c1)CC2 [Example 177] |
| 205 | – | COCCN1C(=O)N(Cc2cccc(OC)c2)C(=O)C12CCN(Cc1cccc(OC)c1)CC2 [Example 178] |
| 215 | – | COc1cccc(CN2C(=O)N(Cc3ccccn3)C3(CCN(Cc4cc(OC)cc(OC)c4)CC3)C2=O)c1 [Example 179] |
| 223 | – | COCCN1C(=O)N(Cc2cccc(OC)c2)C(=O)C12CCN(Cc1cc3c(OC)cccc3cc1OC)CC2 [Example 180] |
| 225 | – | COCCN1C(=O)N(Cc2cccc(OC)c2)C(=O)C12CCN(Cc1cccc(-c3ccccc3)c1)CC2 [Example 181] |
| 226 | – | O=C1N(C/C=C/c2ccccc2)C(=O)C2(CCN(Cc3cccc4ccccc34)CC2)N1Cc1ccc(-n2cccn2)cn1 [Example 182] |
| 230 | – | COCCN1C(=O)N(Cc2cc(OC)cc(OC)c2)C(=O)C12CCN(Cc1cc(OC)cc(OC)c1)CC2 [Example 183] |
| 235 | – | CN1C(=O)N(C/C=C/c2ccccc2)C(=O)C12CCN(Cc1cccc3ccccc13)CC2 [Example 184] |
| 235 | – | O=C1N(C/C=C/c2ccccc2)C(=O)C2(CCN(Cc3cccc4ccccc34)CC2)N1Cc1cccnc1 [Example 185] |
| 236 | – | COCCN1C(=O)N(Cc2cccc(OC)c2)C(=O)C12CCN(Cc1c(C)cc(C)cc1C)CC2 [Example 186] |
| 243 | – | COCCN1C(=O)N(Cc2ccc3ccccc3c2)C(=O)C12CCN(Cc1cccc3ccccc13)CC2 [Example 187] |
| 246 | – | COCCN1C(=O)N(CCCc2ccccc2)C(=O)C12CCN(Cc1cc(OC)cc(OC)c1)CC2 [Example 188] |
| 247 | – | COCCN1C(=O)N(Cc2cccc(N(C)C)c2)C(=O)C12CCN(Cc1ccccc1)CC2 [Example 189] |
| 251 | – | COCCN1C(=O)N(C/C=C/c2ccc(C)cc2)C(=O)C12CCN(Cc1ccccc1)CC2 [Example 190] |
| 253 | – | COCCN1C(=O)N(Cc2cccc(OC)c2)C(=O)C12CCN(Cc1cccc3ccccc13)CC2 [Example 191] |
| 260 | – | COCCN1C(=O)N(Cc2cccc(OC)c2)C(=O)C12CCN(Cc1c(C)c(C)cc(C)c1C)CC2 [Example 192] |
| 261 | – | COCCN1C(=O)N(Cc2cccc(OC)c2)C(=O)C12CCN(Cc1ccccc1C)CC2 [Example 193] |
| 262 | – | COCCN1C(=O)N(Cc2cccc(OC)c2)C(=O)C12CCN(Cc1ccc(N(C)C)c3ccccc13)CC2 [Example 194] |
| 264 | – | COCCN1C(=O)N(CCCOc2ccccc2)C(=O)C12CCN(Cc1cc(OC)cc(OC)c1)CC2 [Example 195] |
| 270 | – | CCN1C(=O)N(Cc2cccc(OC)c2)C(=O)C12CCN(Cc1ccc3ccccc3c1)CC2 [Example 197] |
| 279 | – | COCCN1C(=O)N(Cc2cccc(OC)c2)C(=O)C12CCN(Cc1ccc(C)cc1C)CC2 [Example 199] |
| 285 | – | COc1cccc(CN2C(=O)N(CCO)C3(CCN(Cc4cc(OC)cc(OC)c4)CC3)C2=O)c1 [Example 200] |
| 288 | – | COc1cc(CN2CCC3(CC2)C(=O)N(C/C=C/c2ccccc2)C(=O)N3Cc2cccc3cccnc23)cc(OC)c1 [Example 201] |
